These results are taken from patent US10406207B2, “Peptide conjugates of GLP-1 receptor agonists and gastrin and their use” (priority 2010, dated 2019).

Square brackets hold non-standard residues; d marks the D form. Peptide text beside a SMILES is read from it. AEEA = NCCOCCOCC(=O)O

In test [1] the target is T1, human CCK-B R (Homo sapiens, UniProt P32239).
T1 construct: expressed in transfected cells
T1 sequence (P32239 1-447): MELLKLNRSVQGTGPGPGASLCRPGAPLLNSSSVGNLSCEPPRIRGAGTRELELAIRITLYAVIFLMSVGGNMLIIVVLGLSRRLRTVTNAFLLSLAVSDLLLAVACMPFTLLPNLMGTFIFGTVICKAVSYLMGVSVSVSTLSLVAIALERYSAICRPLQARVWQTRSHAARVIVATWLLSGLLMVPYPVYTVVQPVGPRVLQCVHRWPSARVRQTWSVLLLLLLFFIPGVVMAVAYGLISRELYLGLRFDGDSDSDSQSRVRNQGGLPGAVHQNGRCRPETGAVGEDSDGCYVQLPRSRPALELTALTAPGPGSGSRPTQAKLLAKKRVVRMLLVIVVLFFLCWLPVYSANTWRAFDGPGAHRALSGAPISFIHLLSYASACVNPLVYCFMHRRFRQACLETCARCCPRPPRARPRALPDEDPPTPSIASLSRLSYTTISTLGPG
Put plainly: Human CCK-B receptor efficacy assay (AlphaScreen SureFire p-ERK). Format: cell-based. As to conditions: Table 2; read-out: hCCK-B R EC50. Background: In Alpha technology, singlet oxygen from a donor bead excites a nearby acceptor bead.

In test [2] the target is T2, human GLP-1 R (Homo sapiens, UniProt P43220).
T2 construct: expressed in transfected cells
T2 sequence (P43220 24-463): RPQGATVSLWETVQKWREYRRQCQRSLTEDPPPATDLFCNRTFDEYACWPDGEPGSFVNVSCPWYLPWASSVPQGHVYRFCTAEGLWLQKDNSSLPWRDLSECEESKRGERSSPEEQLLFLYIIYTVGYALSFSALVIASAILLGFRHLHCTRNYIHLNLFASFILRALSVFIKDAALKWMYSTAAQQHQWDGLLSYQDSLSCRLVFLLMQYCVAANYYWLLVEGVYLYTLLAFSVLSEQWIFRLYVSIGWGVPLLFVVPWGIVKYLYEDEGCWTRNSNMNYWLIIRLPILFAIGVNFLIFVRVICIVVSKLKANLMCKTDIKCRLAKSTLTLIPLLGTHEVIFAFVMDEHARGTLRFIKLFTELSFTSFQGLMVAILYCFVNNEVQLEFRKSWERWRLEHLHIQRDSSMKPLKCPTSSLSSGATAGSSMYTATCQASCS
The experiment in a line: Human GLP-1 receptor efficacy assay (cAMP induction, FlashPlate). Format: cell-based. Particulars: Table 2; read-out: hGLP-1 R EC50. Here is the method: On the day of analysis, growth medium was removed and the cells were washed once with 200 μl Tyrode buffer [Tyrode's Salts (9.6 g/l), 10 mM HEPES, pH 7.4]. […] The reaction was stopped by addition of 25 μl 0.5 M HCl and incubated on ice for 60 min.

As a reminder, the EC50 is the concentration giving half of the maximal effect. Take `CC[C@H](C)[C@H](NC(=O)[C@H](Cc1ccccc1)NC(=O)[C@H](CC(C)C)NC(=O)[C@H](CCCNC(=N)N)NC(=O)[C@@H](NC(=O)[C@H](C)NC(=O)[C@H](CCC(=O)O)NC(=O)[C@H](CCC(=O)O)NC(=O)[C@H](CCC(=O)O)NC(=O)[C@H](CC(C)C)NC(=O)[C@H](Cc1ccc(O)cc1)NC(=O)[C@H](CCCCN)NC(=O)[C@H](CO)NC(=O)[C@H](CC(C)C)NC(=O)[C@H](CCC(=O)O)NC(=O)[C@H](CO)NC(=O)[C@@H](NC(=O)[C@H](Cc1ccccc1)NC(=O)[C@@H](NC(=O)CNC(=O)[C@H](CCC(=O)O)NC(=O)CNC(=O)[C@@H](N)Cc1c[nH]cn1)[C@@H](C)O)[C@@H](C)O)C(C)C)C(=O)N[C@@H](CCC(=O)O)C(=O)N[C@@H](Cc1ccccc1)C(=O)N[C@@H](CC(C)C)C(=O)N[C@@H](CCCCN)C(=O)NCCOCCOCC(=O)NCCOCCOCC(=O)N[C@@H](Cc1ccc(O)cc1)C(=O)NCC(=O)N[C@@H](Cc1ccccc1)C(=O)N[C@@H](CC(C)C)C(=O)N[C@@H](CC(=O)O)C(=O)N[C@@H](Cc1ccccc1)C(N)=O` [Compound 90, [Glu9,Leu14,Phe25,Tyr13]Exendin-4(1-27)-Peg3-Peg3-[Leu4,Phe3]Gastrin6] (H-HGEGTFTSELSKYLEEEAVRLFIEFLK[AEEA][AEEA]YGFLDF-NH2): the figures for the EC50 in test [1] and in test [2] were 1300 nM and 0.032 nM, respectively.

For `CC[C@H](C)[C@H](NC(=O)[C@H](Cc1ccccc1)NC(=O)[C@H](CC(C)C)NC(=O)[C@H](CCCNC(=N)N)NC(=O)[C@@H](NC(=O)[C@H](C)NC(=O)[C@H](CCC(=O)O)NC(=O)[C@H](CCC(=O)O)NC(=O)[C@H](CCC(=O)O)NC(=O)[C@H](CC(C)C)NC(=O)[C@H](Cc1ccc(O)cc1)NC(=O)[C@H](CCCCN)NC(=O)[C@H](CO)NC(=O)[C@H](CC(C)C)NC(=O)[C@H](CC(=O)O)NC(=O)[C@H](CO)NC(=O)[C@@H](NC(=O)[C@H](Cc1ccccc1)NC(=O)[C@@H](NC(=O)CNC(=O)[C@H](CCC(=O)O)NC(=O)CNC(=O)[C@@H](N)Cc1c[nH]cn1)[C@@H](C)O)[C@@H](C)O)C(C)C)C(=O)N[C@@H](CCC(=O)O)C(=O)N[C@@H](Cc1ccccc1)C(=O)N[C@@H](CC(C)C)C(=O)N[C@@H](CCCNC(=N)N)C(=O)NCCOCCOCC(=O)N[C@@H](Cc1ccc(O)cc1)C(=O)NCC(=O)N[C@@H](Cc1c[nH]c2ccccc12)C(=O)N[C@@H](CC(C)C)C(=O)N[C@@H](CC(=O)O)C(=O)N[C@@H](Cc1ccccc1)C(N)=O` [Compound 91, [Arg27,Leu14,Phe25,Tyr13]Exendin-4(1-27)-Peg3-[Leu4]Gastrin6] (H-HGEGTFTSDLSKYLEEEAVRLFIEFLR[AEEA]YGWLDF-NH2), the EC50 in test [1] stood at 18 nM; in test [2] it was 0.068 nM.

Turning to `CC[C@H](C)[C@H](NC(=O)[C@H](Cc1ccccc1)NC(=O)[C@H](CC(C)C)NC(=O)[C@H](CCCNC(=N)N)NC(=O)[C@@H](NC(=O)[C@H](C)NC(=O)[C@H](CCC(=O)O)NC(=O)[C@H](CCCCN)NC(=O)[C@H](CCC(=O)O)NC(=O)[C@H](CC(C)C)NC(=O)[C@H](Cc1ccc(O)cc1)NC(=O)[C@H](CCCNC(=N)N)NC(=O)[C@H](CO)NC(=O)[C@H](CC(C)C)NC(=O)[C@H](CC(=O)O)NC(=O)[C@H](CO)NC(=O)[C@@H](NC(=O)[C@H](Cc1ccccc1)NC(=O)[C@@H](NC(=O)CNC(=O)[C@H](CCC(=O)O)NC(=O)CNC(=O)[C@@H](N)Cc1c[nH]cn1)[C@@H](C)O)[C@@H](C)O)C(C)C)C(=O)N[C@@H](CCC(=O)O)C(=O)N[C@@H](Cc1ccccc1)C(=O)N[C@@H](CC(C)C)C(=O)N[C@@H](CCCNC(=N)N)C(=O)NCCOCCOCC(=O)N[C@@H](Cc1ccc(O)cc1)C(=O)NCC(=O)N[C@@H](Cc1c[nH]c2ccccc12)C(=O)N[C@@H](CC(C)C)C(=O)N[C@@H](CC(=O)O)C(=O)N[C@@H](Cc1ccccc1)C(N)=O` [Compound 92, [Arg12,27,Leu14,Lys16,Phe25,Tyr13]Exendin-4(1-27)-Peg3-[Leu4]Gastrin6] (H-HGEGTFTSDLSRYLEKEAVRLFIEFLR[AEEA]YGWLDF-NH2), the 50% effective concentration (EC50) in test [1] stood at 26 nM; in test [2], 0.17 nM.
